Values of other authors in patent US7803755B2, “Molecules for the treatment and prevention of fungal diseases” (priority 2006, dated 2010).
Structures can show the parent of a compound that is named as a salt.

What was measured:
[1] = tested on: onychomycosis; conditions: after using ciclopirox lacquer
[2] = tested on: Trichophyton rubrum, Trichophyton mentagrophytes, Trichophyton tonsurans, Epidermophyton floccosum, Microsporum canis, Microsporum audouini, and Microsporum …; conditions: wide spectrum of organisms
[3] = tested on: Candida species, including Candida albicans

| SMILES | patients rating their onychomycosis as improved [1] | antifungal activity in vitro [2] | antifungal activity in vitro [3] |
| --- | --- | --- | --- |
| Cc1cc(C2CCCCC2)n(O)c(=O)c1 [Ciclopirox] | 90% |  |  |
| CN(C/C=C/c1ccccc1)Cc1cccc2ccccc12 [Naftifine hydrochloride, naftifine hydrochloride] |  | fungicidal activity | fungistatic activity |
